Laboratory results reported in US11998602B2, “Methods for promoting myelination and for treating demyelinating diseases” (The Scripps Research Institute, priority 2018, dated 2024).

Tests used:
[1] = test system: Rat primary optic nerve OPCs; experiment: In vitro OPC differentiation assay, MBP expression by Western blot; type: cell-based; details: for Effect of supplementation on drug-induced OPC differentiation: added to drug-induced differentiation conditions; for Observed maximal in vitro efficacy of OPC differentiation compared to T3: drug alone
Protocol: Rat primary optic nerve OPCs were isolated by panning (>99% A2B5^+) and cultured in poly-D-lysine (10 μg/ml)-coated TC dishes in OPC culture media (Neurobasal Media, Invitrogen) supplemented with B27-without vitamin A (Invitrogen), 1× non-essential amino acids, 1× Glutamax, 1× anti-anti, β-mercaptoethanol and PDGF-AA (50 ng/ml; Peprotech) at 37° C. with 5% CO2. The culture medium was replaced every 48 h and cells were collected before the confluency reached 60% to maintain a naive state. For differentiation, OPCs were plated at 1 million cells in one 10 cm petri-dish filled with differentiation media, which is identical to the culture media, but with PDGF-AA at 2 ng/ml. T3 and DMSO were used as the positive control and negative control, respectively. Five replicates of cells were collected at different times (0, 3, and 6 days) for metabolomics studies.
Western blot analysis. OPCs were plated in basal differentiation medium at 1.7×10^5 cells/well and treated for 6 days with benztropine (0.5 μM), miconazole (2 μM) with and without the tested endogenous metabolites, T3 (1 μM) or DMSO. After washing with PBS, cells were collected in ice cold RIPA buffer containing protease and phosphatase inhibitors. Following incubation on ice for >20 min and sonication, lysed cells were centrifuged (16,000 g, 15 min at 4° C.). Total protein was quantified using a BCA analysis and 25 μg of protein from each sample was denatured by boiling with Bolt LDS Sample Buffer (4×) and Sample Reducing Agent (10×). Proteins were electrophoresed using Bolt 4-12% Bis-Tris gels (Life Technologies) and transferred to a PVDF membrane (Bio-Rad). The membrane was blocked with Odyssey PBS Blocking Buffer (LI-COR) and incubated overnight at 4° C. with anti-MBP (mouse, 1:2000) and anti-actin (mouse, 1:5000). Blots were incubated with […] secondary donkey anti-mouse antibody (LI-COR, 1:7500) and imaged using Odyssey CLx and Image Studio (LI-COR).

[2] = test system: Rat primary optic nerve OPCs; experiment: High content imaging assay of OPC differentiation (MBP, A2B5, DAPI cell counts); type: cell-based
Protocol: Rat primary optic nerve OPCs were isolated by panning (>99% A2B5^+) and cultured in poly-D-lysine (10 μg/ml)-coated TC dishes in OPC culture media (Neurobasal Media, Invitrogen) supplemented with B27-without vitamin A (Invitrogen), 1× non-essential amino acids, 1× Glutamax, 1× anti-anti, β-mercaptoethanol and PDGF-AA (50 ng/ml; Peprotech) at 37° C. with 5% CO2. The culture medium was replaced every 48 h and cells were collected before the confluency reached 60% to maintain a naive state. For differentiation, OPCs were plated at 1 million cells in one 10 cm petri-dish filled with differentiation media, which is identical to the culture media, but with PDGF-AA at 2 ng/ml. T3 and DMSO were used as the positive control and negative control, respectively. Five replicates of cells were collected at different times (0, 3, and 6 days) for metabolomics studies. High content imaging. For dose-response co-treatment experiments, black, clear-bottom 384-well plates (Greiner) were coated with poly-D-lysine (10 μg ml^−1 in PBS). miconazole and benztropine were added at 8 doses in differentiation media; 3-fold dilutions down from 10 μM. taurine was then added at 8 concentrations; 3-fold dilutions down from 20 mM. This 384-well format was also utilized for experiments combining benztropine (0.5 μM), miconazole (2 μM) or T3 (1 μM) with propargylglycine (0.1, 3, 10, 30 μM), reduced glutathione (1, 10, 30, 100 μM) or ascorbic acid ([…]). OPCs were then seeded at a density of 1,000 cells per well, and the plates were incubated at 37° C. with 5% CO2 for 6 days. For time course experiments, cells were seeded at a density of 5,000 cells per well in poly-D-lysine-coated 96-well plates. Cells were treated with DMSO (0.1%), benztropine (0.5 μM), miconazole (2 μM) or T3 (1 μM) on day 0, and taurine (20 mM) was added in combination at 0, 1 or 3 days post-drug treatment. The plates were incubated at 37° C. with 5% CO2 for 6 days. On day 6, cells were then fixed for 20 min with 4% formaldehyde solution and stained with mouse anti-Myelin Basic Protein (MBP) antibody (MAB382, Millipore) or anti-A2B5 antibody (MAB312, Millipore) in 3% BSA, 0.3% Triton X-100 with overnight incubation at 4° C. The cells were washed and incubated with secondary antibody (goat anti-mouse Alexa Fluor488) and DAPI (Invitrogen) for 1 h at room temperature. The cells were washed and plates were sealed and imaged using an Opera confocal imaging reader (Perkin Elmer) or a Cellomics Cell Insight imaging reader (Thermo). An air ×10 lens was used to capture 9 images per well at both wavelengths (488 and 365 nm), with each image representing a different unique locations field in a single well. For image analysis, DAPI-stained nuclei and MBP-positive or A2B5-positive cell bodies were detected using an algorithm that selects for positive cell bodies and nuclei within a range of fluorescent emission values and sizes as determined by fitting parameters to positive (T3, 1 μM) and negative controls (DMSO, 0.1%). The numbers of DAPI-positive objects were enumerated in experiments where cell counts were required. Numerical results from the analyzed images were later exported for analysis using Excel (Microsoft) and/or Genedata software.

[3] = test system: primary mouse cortical neurons co-cultured with OPCs; experiment: In vitro OL maturation assay, MBP-colocalization with co-cultured axons; type: cell-based, rat; details: 0.5 μM benztropine, 1.0 μM miconazole or 2 mM taurine alone, 14 days
Protocol: In vitro OL maturation assay. Cortical and hippocampal tissue was dissected from C57BL/6 mice at embryonic day 14 and dissociated in 0.5% Trypsin with 100 U/mL DNase I diluted in HBSS (+/+) for 10 min at 37° C. Reaction was stopped by supplementing to a final concentration of 10% v/v FBS, 100 μg/mL Soybean Trypsin Inhibitor and 10 U/mL DNase I. Cells were resuspended in plating media consisting of equal volumes of FCS, HBSS (+/+), High-Glucose DMEM with L-glutamine, and F-12 with L-glutamine, then plated onto acid pre-washed German glass coverslips coated with 50 μg/mL Poly-D-Lysine and 20 μg/mL Laminin at a density of 50,000 cells/cm^2. Cells were allowed to attach for 2 hrs and then coverslips were rinsed with PBS before being transferred to a 24-well plate containing 0.5 mL growth media consisting of: Neurobasal medium, B27 supplement (Gibco), 0.5× Glutamax (Thermo), 5 μg/mL gentamycin and 5 μM glutamic acid. Half of the cell media was replaced after 3 DIV with supplemental growth media not containing glutamic acid^47. After 5 DIV, rat-derived cortical OPCs were added to the neuronal culture at a density of 5,000 cells/cm^2. Co-culture media used to resuspend and plate OPCs consisting of a 1:3 mixture of neuronal growth supplement (as above) and oligodendrocyte differentiation media, containing DMEM/F-12 (with L-glutamine), insulin-free N2 supplement, 1× Glutamax, 1×MEM non-essential amino acids, 1× β-mercaptoethanol, 2 ng/mL PDGF and 5 μg/mL gentamycin. All drugs and taurine co-treatment were added once to culture upon plating of OPCs at the following concentrations: 0.5 μM benztropine, 1.0 μM miconazole, each with or without 2 mM taurine. Cultures were maintained by replacing half of the media every three days, maintaining an equivalent concentration of taurine throughout in appropriate wells. […] Co-localization was quantified within regions of interest delineated as the periphery of individual oligodendrocytes. The co-localization index (adapted from a previously described method^48) was calculated as total proportion of co-localized 3D surface area between Tuj1 (neuron) and oligodendrocyte (MBP) over total Tuj1 (neuronal process) area enclosed within each oligodendrocyte process tree as the selected region of interest (ROI, see FIG. 3B″). Mean colocalization values for each condition were normalized to the DMSO condition mean analyzed statistically using Prism software (GraphPad, v7) for two-way ANOVA comparisons (Drug Treatment×Taurine Supplement) with Tukey post-tests for statistical significance. […]

OPCs = experiment: Mitochondrial respiration assay (oxygen consumption rate, XFe96 Seahorse); type: cell-based, rat; details: miconazole treatment alone
Protocol: Mitochondrial respiration assay. Cellular oxygen consumption rate (OCR) was measured using an XFe96 extracellular flux analyzer (Seahorse Biosciences). OPCs were seeded at 40,000 cells/well in PLP-coated XFe96 plates and cultured for 6 days with taurine (2 and 20 mM) alone, or together with miconazole and benztropine. Cells were then incubated in assay medium (DMEM with 20 mM glucose, 5 mM pyruvate and 5 mM sodium bicarbonate, pH˜7.4) for at least 30 min prior to the assay. Media to deliver a final assay well concentration corresponding to of 1 μM oligomycin, 2 μM carbonyl cyanide 4-(trifluoromethoxy) phenylhydrazone (FCCP) and 2 μM rotenone+2 μM antimycin A were pre-loaded into the compound delivery ports of the system. The assay starts with the recording of the basal OCR, followed by recording of the OCR in response to different compounds that constitute the Mitochondria Stress Test (Seahorse Biosciences, Agilent). Once the basal OCR was measured, the compounds were added sequentially and the effects on OCR measured 3 times every 5 min. Oligomycin blocks ATP synthase; FCCP dissipates the inner membrane potential enabling maximum electron flux through the electron transport chain (ETC); rotenone+antimycin A inhibit complexes I and III, respectively, thereby blocking the entry of electrons in the ETC and shutting down mitochondrial activity.

CN(CC(=O)O)C(=N)NP(=O)(O)O [PCr, phosphocreatine]
Effect of supplementation on drug-induced OPC differentiation [1]: some additive effects

C#CCC(N)C(=O)O (stereo not shown) [PPG, propargylglycine]
Impact on differentiation efficiency under basal vehicle treated conditions ([2]; PPG): virtually no impact | Observed efficacy of drug-induced differentiation ([2]; PPG 10 μM added at day 0 or day 3, all drug-induced conditions): significantly enhance | Overall cell number with T3 treatment ([2]; PPG 10 μM, T3 1 μM): enhance | Impact on overall survival in OPC cultures ([2]; PPG, DMSO, benztropine (0.5 μM) or miconazole (2 μM)): not found to impact

CN1[C@@H]2CC[C@H]1C[C@@H](OC(c1ccccc1)c1ccccc1)C2 [benztropine, reference compound]
Observed maximal in vitro efficacy of OPC differentiation compared to T3 [1]: suboptimal | MBP-colocalization with axons, treatment alone vs. DMSO (Tukey post hoc) [3]: significant

CN(CC(=O)O)C(=N)N [creatine]
Effect of supplementation on drug-induced OPC differentiation [1]: some additive effects

Clc1ccc(COC(Cn2ccnc2)c2ccc(Cl)cc2Cl)c(Cl)c1 (stereo not shown) [miconazole, reference compound]
Impact on OCR values compared to DMSO or benztropine treatment (OPCs): negative impact | Observed maximal in vitro efficacy of OPC differentiation compared to T3 [1]: suboptimal | MBP-colocalization with axons, treatment alone vs. DMSO (Tukey post hoc) [3]: no significant difference

reduced glutathione
Differentiation efficiency (MBP-positive OLs) under basal conditions ([2]; 10 μM GSH, DMSO, day 6): no significant effect | Observed total nuclei count in T3-induced differentiation ([2]; 10 μM GSH, T3 (1 μM), day 6): significantly enhance | Overall efficiency of T3-induced differentiation ([2]; 10 μM GSH, T3 (1 μM), day 6): significantly enhance | Impact on total cell number in benztropine- or miconazole-induced differentiation ([2]; reduced glutathione): not found to be significant | Overall efficiency of benztropine- or miconazole-induced differentiation ([2]; reduced glutathione, lesser extent than following taurine addition): enhance
